# Results: patent publication US20120029187A1, “HALOALKYLSULFONANILIDE DERIVATIVE” (Nissan Chemical Industries, Ltd., priority 2009, published 2012)
# How the values were obtained:
# Assay type in all cases: in vivo
# bulrush [1] = experiment: Test Example 1: herbicidal effects in preemergence treatment under submerged conditions; settings: dose 2.52 g/a
# Summary of the method: (§1)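 Flooded-paddy preemergence assay; EC diluted with water, surface-applied at weed seeding; doses g/a; rice transplanted at 2.5 leaves; 0–5 mortality score after 3 weeks.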
# ducksalad [2] = experiment: as above; settings: dose 2.52 g/a
# Summary of the method: as §1
# barnyardgrass [3] = experiment: as above; settings: dose 2.52 g/a
# Summary of the method: as §1
# common lambsquater [4] = experiment: Test Example 3: herbicidal effects in soil treatment; settings: dose 6.3 g/a
# Summary of the method: (§2)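 Seeds were sown in sterilized diluvial soil and covered with about 1.5 cm of soil. Compounds, formulated as emulsifiable concentrates and diluted with water, were sprayed evenly over the soil surface at set doses in g/a. Herbicidal effect was scored on a rating scale three weeks later.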
# wild oat [5] = experiment: as above; settings: dose 6.3 g/a
# Summary of the method: as §2
# common ragweed [6] = experiment: as above; settings: dose 6.3 g/a
# Summary of the method: as §2
# water foxtail [7] = experiment: as above; settings: dose 6.3 g/a
# Summary of the method: as §2
# large crabgrass [8] = experiment: as above; settings: dose 6.3 g/a
# Summary of the method: as §2
# barnyardgrass [9] = experiment: as above; settings: dose 6.3 g/a
# Summary of the method: as §2
# common chickweed [10] = experiment: as above; settings: dose 6.3 g/a
# Summary of the method: as §2
# redroot pigweed [11] = experiment: as above; settings: dose 6.3 g/a
# Summary of the method: as §2
# Italian ryegrass [12] = experiment: as above; settings: dose 6.3 g/a
# Summary of the method: as §2
# giant foxtail [13] = experiment: as above; settings: dose 6.3 g/a
# Summary of the method: as §2
# transplanted rice = experiment: Test Example 1: preemergence treatment under submerged conditions, effect on crop; settings: dose 2.52 g/a
# Summary of the method: as §1
# bulrush [14] = experiment: Test Example 2: herbicidal effects during the vegetation period under submerged conditions; settings: treatment during the vegetation period under submerged conditions; dose 2.52 g/a
# Summary of the method: (§3)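 Barnyardgrass, bulrush and ducksalad were co-sown in alluvial soil flooded to 4 cm and grown in a greenhouse at 25 to 30° C. At the 1- or 2-leaf stage, water-diluted emulsifiable concentrates went onto the water surface at set doses (g/a). Herbicidal effect was scored three weeks later on a graded scale.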
# ducksalad [15] = experiment: as above; settings: treatment during the vegetation period under submerged conditions; dose 2.52 g/a
# Summary of the method: as §3
# barnyardgrass [16] = experiment: as above; settings: treatment during the vegetation period under submerged conditions; dose 2.52 g/a
# Summary of the method: as §3
# common lambsquater [17] = experiment: Test Example 4: herbicidal effect in foliage treatment; settings: dose 6.3 g/a, three weeks after application
# Summary of the method: (§4)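 Visual herbicidal scores on a graded scale were recorded three weeks after foliar application. Compounds went on as diluted emulsifiable concentrates at predetermined g/a to plants grown 14 days in a 25 to 30° C greenhouse.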
# wild oat [18] = experiment: as above; settings: dose 6.3 g/a, three weeks after application
# Summary of the method: as §4
# common ragweed [19] = experiment: as above; settings: dose 6.3 g/a, three weeks after application
# Summary of the method: as §4
# water foxtail [20] = experiment: as above; settings: dose 6.3 g/a, three weeks after application
# Summary of the method: as §4
# large crabgrass [21] = experiment: as above; settings: dose 6.3 g/a, three weeks after application
# Summary of the method: as §4
# beadstraw = experiment: as above; settings: dose 6.3 g/a, three weeks after application
# Summary of the method: as §4
# barnyardgrass [22] = experiment: as above; settings: dose 6.3 g/a, three weeks after application
# Summary of the method: as §4
# common chickweed [23] = experiment: as above; settings: dose 6.3 g/a, three weeks after application
# Summary of the method: as §4
# redroot pigweed [24] = experiment: as above; settings: dose 6.3 g/a, three weeks after application
# Summary of the method: as §4
# Italian ryegrass [25] = experiment: as above; settings: dose 6.3 g/a, three weeks after application
# Summary of the method: as §4
# giant foxtail [26] = experiment: as above; settings: dose 6.3 g/a, three weeks after application
# Summary of the method: as §4
compound,measurement,setting,value
CC1CC(=O)N(Cc2ccccc2NS(=O)(=O)C(F)(F)F)CO1 (centres unmarked) [II-4],"B: bulrush, herbicidal effect (evaluation scale 0-5)",bulrush [1],5 (mortality of 90% or above (nearly complete death))
same,"C: ducksalad, herbicidal effect (evaluation scale 0-5)",ducksalad [2],5 (mortality of 90% or above (nearly complete death))
same,"A: barnyardgrass, herbicidal effect (evaluation scale 0-5)",barnyardgrass [3],5 (mortality of 90% or above (nearly complete death))
same,"L: common lambsquater, herbicidal effect (evaluation scale 0-5)",common lambsquater [4],4 (mortality of at least 70% and less than 90%)
same,"F: wild oat, herbicidal effect (evaluation scale 0-5)",wild oat [5],0 (mortality of less than 5% (almost ineffective))
same,"J: common ragweed, herbicidal effect (evaluation scale 0-5)",common ragweed [6],4 (mortality of at least 70% and less than 90%)
same,"G: water foxtail, herbicidal effect (evaluation scale 0-5)",water foxtail [7],5 (mortality of 90% or above (nearly complete death))
same,"D: large crabgrass, herbicidal effect (evaluation scale 0-5)",large crabgrass [8],5 (mortality of 90% or above (nearly complete death))
same,"A: barnyardgrass, herbicidal effect (evaluation scale 0-5)",barnyardgrass [9],5 (mortality of 90% or above (nearly complete death))
same,"N: common chickweed, herbicidal effect (evaluation scale 0-5)",common chickweed [10],5 (mortality of 90% or above (nearly complete death))
same,"K: redroot pigweed, herbicidal effect (evaluation scale 0-5)",redroot pigweed [11],0 (mortality of less than 5% (almost ineffective))
same,"H: Italian ryegrass, herbicidal effect (evaluation scale 0-5)",Italian ryegrass [12],3 (mortality of at least 40% and less than 70%)
same,"E: giant foxtail, herbicidal effect (evaluation scale 0-5)",giant foxtail [13],5 (mortality of 90% or above (nearly complete death))
same,"a: transplanted rice, effect on crop (evaluation scale 0-5)",transplanted rice,0 (mortality of less than 5% (almost ineffective))
same,"B: bulrush, herbicidal effect (evaluation scale 0-5)",bulrush [14],5 (mortality of 90% or above (nearly complete death))
same,"C: ducksalad, herbicidal effect (evaluation scale 0-5)",ducksalad [15],5 (mortality of 90% or above (nearly complete death))
same,"A: barnyardgrass, herbicidal effect (evaluation scale 0-5)",barnyardgrass [16],5 (mortality of 90% or above (nearly complete death))
same,"L: common lambsquater, herbicidal effect",common lambsquater [17],3 (mortality of at least 40% and less than 70%)
same,"F: wild oat, herbicidal effect",wild oat [18],0 (mortality of less than 5% (almost ineffective))
same,"J: common ragweed, herbicidal effect",common ragweed [19],5 (mortality of 90% or above (nearly complete death))
same,"G: water foxtail, herbicidal effect",water foxtail [20],5 (mortality of 90% or above (nearly complete death))
same,"D: large crabgrass, herbicidal effect",large crabgrass [21],5 (mortality of 90% or above (nearly complete death))
same,"O: beadstraw, herbicidal effect",beadstraw,4 (mortality of at least 70% and less than 90%)
same,"A: barnyardgrass, herbicidal effect",barnyardgrass [22],5 (mortality of 90% or above (nearly complete death))
same,"N: common chickweed, herbicidal effect",common chickweed [23],3 (mortality of at least 40% and less than 70%)
same,"K: redroot pigweed, herbicidal effect",redroot pigweed [24],0 (mortality of less than 5% (almost ineffective))
same,"H: Italian ryegrass, herbicidal effect",Italian ryegrass [25],3 (mortality of at least 40% and less than 70%)
same,"E: giant foxtail, herbicidal effect",giant foxtail [26],5 (mortality of 90% or above (nearly complete death))
CCOC(=O)N(c1ccccc1CN1COC(C)CC1=O)S(=O)(=O)C(F)(F)F (centres unmarked) [II-7],"B: bulrush, herbicidal effect (evaluation scale 0-5)",bulrush [1],5 (mortality of 90% or above (nearly complete death))
same,"C: ducksalad, herbicidal effect (evaluation scale 0-5)",ducksalad [2],5 (mortality of 90% or above (nearly complete death))
same,"A: barnyardgrass, herbicidal effect (evaluation scale 0-5)",barnyardgrass [3],5 (mortality of 90% or above (nearly complete death))
same,"L: common lambsquater, herbicidal effect (evaluation scale 0-5)",common lambsquater [4],5 (mortality of 90% or above (nearly complete death))
same,"F: wild oat, herbicidal effect (evaluation scale 0-5)",wild oat [5],2 (mortality of at least 20% and less than 40%)
same,"J: common ragweed, herbicidal effect (evaluation scale 0-5)",common ragweed [6],4 (mortality of at least 70% and less than 90%)
same,"G: water foxtail, herbicidal effect (evaluation scale 0-5)",water foxtail [7],5 (mortality of 90% or above (nearly complete death))
same,"D: large crabgrass, herbicidal effect (evaluation scale 0-5)",large crabgrass [8],5 (mortality of 90% or above (nearly complete death))
same,"A: barnyardgrass, herbicidal effect (evaluation scale 0-5)",barnyardgrass [9],5 (mortality of 90% or above (nearly complete death))
same,"N: common chickweed, herbicidal effect (evaluation scale 0-5)",common chickweed [10],4 (mortality of at least 70% and less than 90%)
same,"K: redroot pigweed, herbicidal effect (evaluation scale 0-5)",redroot pigweed [11],0 (mortality of less than 5% (almost ineffective))
same,"H: Italian ryegrass, herbicidal effect (evaluation scale 0-5)",Italian ryegrass [12],2 (mortality of at least 20% and less than 40%)
same,"E: giant foxtail, herbicidal effect (evaluation scale 0-5)",giant foxtail [13],5 (mortality of 90% or above (nearly complete death))
same,"a: transplanted rice, effect on crop (evaluation scale 0-5)",transplanted rice,0 (mortality of less than 5% (almost ineffective))
same,"B: bulrush, herbicidal effect (evaluation scale 0-5)",bulrush [14],5 (mortality of 90% or above (nearly complete death))
same,"C: ducksalad, herbicidal effect (evaluation scale 0-5)",ducksalad [15],4 (mortality of at least 70% and less than 90%)
same,"A: barnyardgrass, herbicidal effect (evaluation scale 0-5)",barnyardgrass [16],5 (mortality of 90% or above (nearly complete death))
same,"L: common lambsquater, herbicidal effect",common lambsquater [17],5 (mortality of 90% or above (nearly complete death))
same,"F: wild oat, herbicidal effect",wild oat [18],0 (mortality of less than 5% (almost ineffective))
same,"J: common ragweed, herbicidal effect",common ragweed [19],5 (mortality of 90% or above (nearly complete death))
same,"G: water foxtail, herbicidal effect",water foxtail [20],5 (mortality of 90% or above (nearly complete death))
same,"D: large crabgrass, herbicidal effect",large crabgrass [21],5 (mortality of 90% or above (nearly complete death))
same,"O: beadstraw, herbicidal effect",beadstraw,3 (mortality of at least 40% and less than 70%)
same,"A: barnyardgrass, herbicidal effect",barnyardgrass [22],5 (mortality of 90% or above (nearly complete death))
same,"N: common chickweed, herbicidal effect",common chickweed [23],2 (mortality of at least 20% and less than 40%)
same,"K: redroot pigweed, herbicidal effect",redroot pigweed [24],0 (mortality of less than 5% (almost ineffective))
same,"H: Italian ryegrass, herbicidal effect",Italian ryegrass [25],3 (mortality of at least 40% and less than 70%)
same,"E: giant foxtail, herbicidal effect",giant foxtail [26],5 (mortality of 90% or above (nearly complete death))
CC1(C)CC(=O)N(Cc2ccccc2N(C(=O)c2ccccc2)S(=O)(=O)C(F)(F)F)CO1 [II-21],"B: bulrush, herbicidal effect (evaluation scale 0-5)",bulrush [1],5 (mortality of 90% or above (nearly complete death))
same,"C: ducksalad, herbicidal effect (evaluation scale 0-5)",ducksalad [2],5 (mortality of 90% or above (nearly complete death))
same,"A: barnyardgrass, herbicidal effect (evaluation scale 0-5)",barnyardgrass [3],5 (mortality of 90% or above (nearly complete death))
same,"L: common lambsquater, herbicidal effect (evaluation scale 0-5)",common lambsquater [4],0 (mortality of less than 5% (almost ineffective))
same,"F: wild oat, herbicidal effect (evaluation scale 0-5)",wild oat [5],0 (mortality of less than 5% (almost ineffective))
same,"J: common ragweed, herbicidal effect (evaluation scale 0-5)",common ragweed [6],5 (mortality of 90% or above (nearly complete death))
same,"G: water foxtail, herbicidal effect (evaluation scale 0-5)",water foxtail [7],5 (mortality of 90% or above (nearly complete death))
same,"D: large crabgrass, herbicidal effect (evaluation scale 0-5)",large crabgrass [8],5 (mortality of 90% or above (nearly complete death))
same,"A: barnyardgrass, herbicidal effect (evaluation scale 0-5)",barnyardgrass [9],5 (mortality of 90% or above (nearly complete death))
same,"N: common chickweed, herbicidal effect (evaluation scale 0-5)",common chickweed [10],4 (mortality of at least 70% and less than 90%)
same,"H: Italian ryegrass, herbicidal effect (evaluation scale 0-5)",Italian ryegrass [12],5 (mortality of 90% or above (nearly complete death))
same,"E: giant foxtail, herbicidal effect (evaluation scale 0-5)",giant foxtail [13],3 (mortality of at least 40% and less than 70%)
same,"a: transplanted rice, effect on crop (evaluation scale 0-5)",transplanted rice,0 (mortality of less than 5% (almost ineffective))
same,"B: bulrush, herbicidal effect (evaluation scale 0-5)",bulrush [14],5 (mortality of 90% or above (nearly complete death))
same,"C: ducksalad, herbicidal effect (evaluation scale 0-5)",ducksalad [15],5 (mortality of 90% or above (nearly complete death))
same,"A: barnyardgrass, herbicidal effect (evaluation scale 0-5)",barnyardgrass [16],5 (mortality of 90% or above (nearly complete death))
same,"L: common lambsquater, herbicidal effect",common lambsquater [17],4 (mortality of at least 70% and less than 90%)
same,"F: wild oat, herbicidal effect",wild oat [18],0 (mortality of less than 5% (almost ineffective))
same,"J: common ragweed, herbicidal effect",common ragweed [19],5 (mortality of 90% or above (nearly complete death))
same,"G: water foxtail, herbicidal effect",water foxtail [20],5 (mortality of 90% or above (nearly complete death))
same,"D: large crabgrass, herbicidal effect",large crabgrass [21],4 (mortality of at least 70% and less than 90%)
same,"O: beadstraw, herbicidal effect",beadstraw,4 (mortality of at least 70% and less than 90%)
same,"A: barnyardgrass, herbicidal effect",barnyardgrass [22],5 (mortality of 90% or above (nearly complete death))
same,"N: common chickweed, herbicidal effect",common chickweed [23],4 (mortality of at least 70% and less than 90%)
same,"K: redroot pigweed, herbicidal effect",redroot pigweed [24],2 (mortality of at least 20% and less than 40%)
same,"H: Italian ryegrass, herbicidal effect",Italian ryegrass [25],4 (mortality of at least 70% and less than 90%)
same,"E: giant foxtail, herbicidal effect",giant foxtail [26],4 (mortality of at least 70% and less than 90%)
